Molecules are shown by their SMILES.

Experiment [1] deals with T1, human BRD4 bromodomain II (Homo sapiens, UniProt O60885).
T1 construct: human BRD4 bromodomain II [based on Genbank NM_058243, residues 349-460]; host or cells: E. coli
Kind of experiment: Bromodomain binding assay (AlphaScreen), BRD4 BDII. Conditions: AlphaScreen assay, Table C2; read-out: BRD4 BDII IC50. The method, boiled down: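 First, His6-tagged BRD4 bromodomain (BDI residues 44-170 or BDII residues 349-460) is incubated with compound for 30 min at room temperature. Next the biotinylated H4 peptide is added for 30 min, then donor and acceptor beads, with 60 min in the dark before AlphaScreen reading and IC50 fitting.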
For orientation: Bead proximity is the source of the signal in Alpha formats.

Experiment [2] relates to human SKM-1 acute myeloid leukemia cells. Put plainly: SKM-1 antiproliferation cell-based assay (ATPlite). Conditions: Homo sapiens, SKM-1, 96 h, SKM-1 antiproliferation assay, 4 days, Table C2. The method, boiled down: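 Log-phase cells in RPMI 1640/15% FBS were seeded at 34722 cells/mL and exposed for 4 days to nine-concentration DMSO serial dilutions in triplicate. Viability was read as ATP luminescence (ATPlite 1step), and IC50 values came from variable-slope non-linear regression.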
For orientation: Cellular ATP, detected with luciferase, serves as a proxy for viable cell number.

For orientation: IC50 means the point on the concentration scale where inhibition reaches its midpoint. As a reminder, the GI50 is the concentration that inhibits growth by half. Lower therefore signals greater sensitivity of the cells. As to `COCC(C)(C)N1CCN(c2cc(-c3cc(F)cc(-c4ccc(-n5ccn(C)c5=O)c(Cl)c4)c3O)ccn2)CC1` [Example 724, 1-(3-chloro-5′-fluoro-2′-hydroxy-3′-(2-(4-(1-methoxy-2-methylpropan-2-yl)piperazin-1-yl)pyridin-4-yl)-[1,1′-biphenyl]-4-yl)-3-methyl-1H-imidazol-2(3H)-one], the IC50 in experiment [1] was 0.01 to 1 nM. In experiment [2], this compound gave a GI50 of 0.3 to 30 nM.

Turning to `Cn1cc(-c2cc(F)cc(-c3ccc(-n4ccn(C)c4=O)c(Cl)c3)c2O)cc(N2CCC(C)(O)C2)c1=O` (centres unmarked) [Example 725, 5-(3′-chloro-5-fluoro-2-hydroxy-4′-(3-methyl-2-oxo-2,3-dihydro-1H-imidazol-1-yl)-[1,1′-biphenyl]-3-yl)-3-(3-hydroxy-3-methylpyrrolidin-1-yl)-1-methylpyridin-2(1H)-one], the IC50 in experiment [1] is 1 to 10 nM. For the same compound, the GI50 in experiment [2] is 30 to 300 nM.

As to `Cn1ccn(-c2ccc(-c3cc(F)cc(-c4ccnc(N5C[C@@H](O)[C@H](O)C5)c4)c3O)cc2Cl)c1=O` [Example 726, 1-(3-chloro-3′-(2-((3R,4R)-3,4-dihydroxypyrrolidin-1-yl)pyridin-4-yl)-5′-fluoro-2′-hydroxy-[1,1′-biphenyl]-4-yl)-3-methyl-1H-imidazol-2(3H)-one], the IC50 in experiment [1] is 0.01 to 1 nM. In experiment [2], the GI50 was in the range of 0.3 to 30 nM.

As for `CC(C)N1CCC2CN(c3cc(-c4cc(F)cc(-c5ccc(-n6ccn(C)c6=O)c(Cl)c5)c4O)ccn3)CC21` (centres unmarked) [Example 727, 1-(3-chloro-5′-fluoro-2′-hydroxy-3′-(2-(1-isopropylhexahydropyrrolo[3,4-b]pyrrol-5(1H)-yl)pyridin-4-yl)-[1,1′-biphenyl]-4-yl)-3-methyl-1H-imidazol-2(3H)-one], the IC50 in experiment [1] fell in the range of 0.01 to 1 nM. The compound also yielded a GI50 in experiment [2] of 0.3 to 30 nM.

As to `Cn1ccn(-c2ccc(-c3cc(F)cc(-c4cncc(N5CC[C@@](C)(O)C5)c4)c3O)cc2Cl)c1=O` [Example 728, (R)-1-(3-chloro-5′-fluoro-2′-hydroxy-3′-(5-(3-hydroxy-3-methylpyrrolidin-1-yl)pyridin-3-yl)-[1,1′-biphenyl]-4-yl)-3-methyl-1H-imidazol-2(3H)-one], the IC50 in experiment [1] lay within 1 to 10 nM. This compound returned a GI50 in experiment [2] of 0.3 to 30 nM.

As for `Cn1ccn(-c2ccc(-c3cc(F)cc(-c4cncc(N5CC[C@](C)(O)C5)c4)c3O)cc2Cl)c1=O` [Example 729, (S)-1-(3-chloro-5′-fluoro-2′-hydroxy-3′-(5-(3-hydroxy-3-methylpyrrolidin-1-yl)pyridin-3-yl)-[1,1′-biphenyl]-4-yl)-3-methyl-1H-imidazol-2(3H)-one], the 50% inhibitory concentration (IC50) in experiment [1] is 0.01 to 1 nM. The compound further gave a GI50 in experiment [2] of 0.3 to 30 nM.

Regarding `CC(C)N1C2CCC1CN(c1cc(-c3cc(F)cc(-c4ccc(-n5ccn(C)c5=O)c(Cl)c4)c3O)ccn1)C2` [Example 730, 1-(3-chloro-5′-fluoro-2′-hydroxy-3′-(2-(8-isopropyl-3,8-diazabicyclo[3.2.1]octan-3-yl)pyridin-4-yl)-[1,1′-biphenyl]-4-yl)-3-methyl-1H-imidazol-2(3H)-one], in experiment [1], the IC50 was in the range of 0.01 to 1 nM. In experiment [2], this compound displayed a GI50 of 0.3 to 30 nM.

For the compound `Cn1ccn(-c2ccc(-c3cc(F)cc(-c4ccnc(N5CCC(O)(CO)C5)c4)c3O)cc2Cl)c1=O` (centres unmarked) [Example 731, 1-(3-chloro-5′-fluoro-2′-hydroxy-3′-(2-(3-hydroxy-3-(hydroxymethyl)pyrrolidin-1-yl)pyridin-4-yl)-[1,1′-biphenyl]-4-yl)-3-methyl-1H-imidazol-2(3H)-one], in experiment [1], the IC50 lay within 0.01 to 1 nM. In addition, the 50% growth inhibitory concentration (GI50) in experiment [2] was in the range of 0.3 to 30 nM.

With `COc1cc(-c2cc(F)cc(-c3ccc(-n4ccn(C)c4=O)c(Cl)c3)c2O)cc(N2CCN(C(C)(C)C)CC2)n1` [Example 732, 1-(3′-(2-(4-(tert-butyl)piperazin-1-yl)-6-methoxypyridin-4-yl)-3-chloro-5′-fluoro-2′-hydroxy-[1,1′-biphenyl]-4-yl)-3-methyl-1H-imidazol-2(3H)-one], the IC50 in experiment [1] fell in the range of 1 to 10 nM. The same compound showed a GI50 in experiment [2] of 0.3 to 30 nM.

`COCC(COC)N1CCN(c2cc(-c3cc(F)cc(-c4ccc(-n5ccn(C)c5=O)c(Cl)c4)c3O)ccn2)CC1` [Example 733, 1-(3-chloro-3′-(2-(4-(1,3-dimethoxypropan-2-yl)piperazin-1-yl)pyridin-4-yl)-5′-fluoro-2′-hydroxy-[1,1′-biphenyl]-4-yl)-3-methyl-1H-imidazol-2(3H)-one]: the IC50 in experiment [1] was in the range of 1 to 10 nM. This compound came in with a GI50 in experiment [2] of 30 to 300 nM.

On to `Cn1ccn(-c2ccc(-c3cc(F)cc(-c4cccc(N5CCN(C(C)(C)C)CC5)c4)c3O)cc2Cl)c1=O` [Example 734, 1-(3″-(4-(tert-butyl)piperazin-1-yl)-3-chloro-5′-fluoro-2′-hydroxy-[1,1′:3′,1″-terphenyl]-4-yl)-3-methyl-1H-imidazol-2(3H)-one], for which the IC50 in experiment [1] was in the range of 0.01 to 1 nM. Further, the GI50 in experiment [2] was 0.3 to 30 nM.

On to `Cn1ccn(-c2ccc(-c3cc(F)cc(-c4cc(N5CCN(C(C)(C)C)CC5)n(C)c(=O)c4)c3O)cc2Cl)c1=O` [Example 735, 6-(4-(tert-butyl)piperazin-1-yl)-4-(3′-chloro-5-fluoro-2-hydroxy-4′-(3-methyl-2-oxo-2,3-dihydro-1H-imidazol-1-yl)-[1,1′-biphenyl]-3-yl)-1-methylpyridin-2(1H)-one], for which the IC50 in experiment [1] was 0.01 to 1 nM. In experiment [2], the concentration for 50% growth inhibition (GI50) was 0.3 to 30 nM.

Turning to `Cn1ccn(-c2ccc(-c3cc(F)cc(-c4ccnc(N5CCC6(CCC(=O)N6)C5)c4)c3O)cc2Cl)c1=O` (centres unmarked) [Example 736, 7-(4-(3′-chloro-5-fluoro-2-hydroxy-4′-(3-methyl-2-oxo-2,3-dihydro-1H-imidazol-1-yl)-[1,1′-biphenyl]-3-yl)pyridin-2-yl)-1,7-diazaspiro[4.4]nonan-2-one], the IC50 in experiment [1] was in the range of 0.01 to 1 nM. Besides, in experiment [2], the GI50 lay within 0.3 to 30 nM.

Turning to `CCC1(O)CCN(c2cc(-c3cc(F)cc(-c4ccc(-n5ccn(C)c5=O)c(Cl)c4)c3O)ccn2)C1` (centres unmarked) [Example 737, 1-(3-chloro-3′-(2-(3-ethyl-3-hydroxypyrrolidin-1-yl)pyridin-4-yl)-5′-fluoro-2′-hydroxy-[1,1′-biphenyl]-4-yl)-3-methyl-1H-imidazol-2(3H)-one], in experiment [1], the IC50 was in the range of 0.01 to 1 nM. In experiment [2], this compound came in with a GI50 of 0.3 to 30 nM.

Regarding `COc1ncc(-c2cc(F)cc(-c3ccc(-n4ccn(C)c4=O)c(Cl)c3)c2O)cc1N1CCN(C(C)C)CC1` [Example 738, 1-(3-chloro-5′-fluoro-2′-hydroxy-3′-(5-(4-isopropylpiperazin-1-yl)-6-methoxypyridin-3-yl)-[1,1′-biphenyl]-4-yl)-3-methyl-1H-imidazol-2(3H)-one], in experiment [1], the IC50 was in the range of 0.01 to 1 nM. For the same compound, the GI50 in experiment [2] fell in the range of 0.3 to 30 nM.

In the case of `Cn1ccn(-c2ccc(-c3cc(F)cc(-c4ccnc(N5C[C@@H](O)[C@@H](O)C5)c4)c3O)cc2Cl)c1=O` [Example 739, 1-(3-chloro-3′-(2-((3S,4R)-3,4-dihydroxypyrrolidin-1-yl)pyridin-4-yl)-5′-fluoro-2′-hydroxy-[1,1′-biphenyl]-4-yl)-3-methyl-1H-imidazol-2(3H)-one], the IC50 in experiment [1] is 0.01 to 1 nM. In experiment [2], the 50% growth inhibitory concentration (GI50) lay in the range of 0.3 to 30 nM.

On to `CC(C)N1C2CCC1CN(c1cncc(-c3cc(F)cc(-c4ccc(-n5ccn(C)c5=O)c(Cl)c4)c3O)c1)C2` [Example 740, 1-(3-chloro-5′-fluoro-2′-hydroxy-3′-(5-(8-isopropyl-3,8-diazabicyclo[3.2.1]octan-3-yl)pyridin-3-yl)-[1,1′-biphenyl]-4-yl)-3-methyl-1H-imidazol-2(3H)-one], for which the IC50 in experiment [1] was 0.01 to 1 nM. This compound came in with a GI50 in experiment [2] of 0.3 to 30 nM.

Consider `CN(C)C1(C)CCN(c2cc(-c3cc(F)cc(-c4ccc(-n5ccn(C)c5=O)c(Cl)c4)c3O)ccn2)C1` (centres unmarked) [Example 741, 1-(3-chloro-3′-(2-(3-(dimethylamino)-3-methylpyrrolidin-1-yl)pyridin-4-yl)-5′-fluoro-2′-hydroxy-[1,1′-biphenyl]-4-yl)-3-methyl-1H-imidazol-2(3H)-one], for which, in experiment [1], the IC50 was 0.01 to 1 nM. Moreover, the 50% growth inhibitory concentration (GI50) in experiment [2] lay in the range of 0.3 to 30 nM.

Turning to `Cn1ccn(-c2ccc(-c3cc(F)cc(-c4cncc(N5CC[C@@](C)(N)C5)c4)c3O)cc2Cl)c1=O` [Example 742, (R)-1-(3′-(5-(3-amino-3-methylpyrrolidin-1-yl)pyridin-3-yl)-3-chloro-5′-fluoro-2′-hydroxy-[1,1′-biphenyl]-4-yl)-3-methyl-1H-imidazol-2(3H)-one], the half-maximal inhibitory concentration (IC50) in experiment [1] lay within 0.01 to 1 nM. In addition, the GI50 in experiment [2] was 0.3 to 30 nM.

For `Cn1ccn(-c2ccc(-c3cc(F)cc(-c4ccnc(N5CC(O)C6(CC6)C5)c4)c3O)cc2Cl)c1=O` (centres unmarked) [Example 743, 1-(3-chloro-5′-fluoro-2′-hydroxy-3′-(2-(7-hydroxy-5-azaspiro[2.4]heptan-5-yl)pyridin-4-yl)-[1,1′-biphenyl]-4-yl)-3-methyl-1H-imidazol-2(3H)-one], the IC50 in experiment [1] fell in the range of 0.01 to 1 nM. In experiment [2], this compound gave a GI50 of 0.3 to 30 nM.

As to `Cn1ccn(-c2ccc(-c3cc(F)cc(-c4ccnc(N5CCCC(C)(N)C5)c4)c3O)cc2Cl)c1=O` (centres unmarked) [Example 744, 1-(3′-(2-(3-amino-3-methylpiperidin-1-yl)pyridin-4-yl)-3-chloro-5′-fluoro-2′-hydroxy-[1,1′-biphenyl]-4-yl)-3-methyl-1H-imidazol-2(3H)-one], the IC50 in experiment [1] fell in the range of 0.01 to 1 nM. This compound also yielded a GI50 in experiment [2] of 0.3 to 30 nM.

`Cn1ccn(-c2ccc(-c3cc(F)cc(-c4cncc(N5CCC(C)(N)C5)c4)c3O)cc2Cl)c1=O` (centres unmarked) [Example 745, 1-(3′-(5-(3-amino-3-methylpyrrolidin-1-yl)pyridin-3-yl)-3-chloro-5′-fluoro-2′-hydroxy-[1,1′-biphenyl]-4-yl)-3-methyl-1H-imidazol-2(3H)-one]: the IC50 in experiment [1] is 0.01 to 1 nM. The compound also yielded a GI50 in experiment [2] of 0.3 to 30 nM.

For the origin of these results see patent publication US20250179059A1 (The Regents of the University of California, priority 2021, published 2025).
